For one series, the target named is T1, COX-2 enzyme (Homo sapiens, UniProt P35354).
T1 sequence (P35354 18-604): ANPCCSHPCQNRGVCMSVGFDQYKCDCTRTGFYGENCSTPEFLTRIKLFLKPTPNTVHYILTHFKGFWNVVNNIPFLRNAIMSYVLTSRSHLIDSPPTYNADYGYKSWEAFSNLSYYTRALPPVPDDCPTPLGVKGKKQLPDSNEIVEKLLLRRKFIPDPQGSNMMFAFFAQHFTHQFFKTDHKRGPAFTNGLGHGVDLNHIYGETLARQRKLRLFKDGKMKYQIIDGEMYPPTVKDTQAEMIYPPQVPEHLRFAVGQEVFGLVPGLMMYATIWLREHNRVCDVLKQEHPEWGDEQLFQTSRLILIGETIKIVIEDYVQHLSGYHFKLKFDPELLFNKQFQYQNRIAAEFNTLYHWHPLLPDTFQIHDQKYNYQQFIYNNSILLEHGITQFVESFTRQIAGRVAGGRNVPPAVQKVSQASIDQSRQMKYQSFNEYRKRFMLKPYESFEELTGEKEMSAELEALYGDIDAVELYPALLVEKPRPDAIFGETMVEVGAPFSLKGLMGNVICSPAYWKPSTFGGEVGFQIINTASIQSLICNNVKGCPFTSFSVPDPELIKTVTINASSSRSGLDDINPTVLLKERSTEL
Conditions: plasma concentrations; cited from earlier work.

The subject of the next series is MDA-MB-231. The series can be described thus: MTT cell proliferation assay, breast cancer cell line MDA-MB-231. In kind it is cell-based, human. Conditions: single inhibitor, 72 hours culture; for minimum inhibitory concentration (cell proliferation): FIG. 1; for minimum proliferation inhibitory concentration: FIG. 1C, 1F. The source says:
In the experiments described below, the cells used are human breast and colon cancer cell lines. The breast cancer cell lines were obtained from Lombarda Cancer Center, Georgetown University Medical Center. The breast cancer lines are cell lines called […] and Hs578T. These cells show a high rate of proliferation, absence of estrogen receptors, are capable of forming tumors in naked mice and show a highly aggressive phenotype. Both lines are used very frequently as breast cancer models. The colon cancer cell line is the cell line called SW620 that was originally isolated from the lymphatic nodules of a patient with colon adenocarcinoma.
The cells are cultivated in polystyrene culture bottles (Corning, Corning, N.Y.). Both cell lines are kept in culture in DMEM medium (Dulbeco's Modified Tagle Medium, obtained from Gibco, Invitrogen Corporation, NY. USA) and supplemented with 10% fetal bovine serum (FBS) (obtained from PAA, GmbH Laboratories, Pasching, Austria), and supplemented with 100 U/ml of penicillin and 10 μg/ml of streptomycin (Gibco, Invitrogen Corporation, NY, USA) in incubator 37° C. In humidified atmosphere of […]/5% CO2.
There were carried out curves of dose-cell proliferation inhibition response of the human breast cancer cell line MDA-MB-231, with the intent of objectively knowing the minimum concentrations that produce a proliferation inhibiting effect.
In all the cases, the cell proliferation measurement was carried out using the MTT techniques of incorporation of Bromodeoxyuridine (BrdUr) (5-bromine-2′-deoxyuridine of Elisa Roche Applied Science, Mannheim, Germany) and the violet crystal coloration technique.
The cells were cultivated in microplates (Orange Scientific) of 96 cavities in the amount of 4,000 cells per cavity in 200 ul of DMEM supplemented with FCS supplemented with 100 U/ml of penicillin and 10 ug/ml of streptomycin in incubator at 37° C. with atmosphere of […]/5% CO2. A the end of this period, the cells were cultivated for another 24 hours in culture medium in the absence of serum. At the end of this period, culture medium with scram in the absence (control) or presence of different inhibitors was added, in accordance with the following:
The cells were kept in culture for 72 hours. Then, thiazol blue bromide reagent was added (3-(4,5-dimethylthiazol-[…])-2,5-diphenyltetrazolium bromide). It was incubated for 180 minutes at 37° C. After this time, the culture medium was discarded and the formazan crystals formed were dissolved with 200 ul of dimethylsulfoxide. The microplates were agitated for 15 minutes to dilute the crystals of homogeneous form, and absorbance was determined at 620 nm in a plate reader, “Biotra II, plate reader,” of Amersham Biosciences Inc., Piscataway, N.J., USA.

A further series relates to cell growth. Conditions: Min Yao et al. 2005; cited from earlier work.
For series [1], the system named is cells of the microvascular endothelium. Conditions: per se inhibitory doses of 75 μM; Kakiuchi-Kiyota et al. 2009; cited from earlier work.

Values after ≈ are worked out from the molar mass of the structure shown.

Here are results for eight compounds from US20120178782A1, “COMPOSITIONS AND METHODS FOR TREATING PROLIFERATIVE DISEASES” (priority 2009, published 2012).

For the compound `CC(=O)Oc1ccccc1C(=O)O` [aspirin, acetylsalicylic acid], the “plasma concentration inhibiting COX-2 enzyme” value on COX-2 enzyme is recorded as “greater than 0.5 mM”.
As for `CN(CCOc1ccc(CC2SC(=O)NC2=O)cc1)c1ccccn1` (stereo not shown) [Rosiglitazone], in the series with MDA-MB-231, the “minimum inhibitory concentration (cell proliferation)” value (“minimum inhibitory concentration” for short) came out at 75 µM (≈ 26.8 µg/mL).
Consider `COc1cc(C(=O)NS(=O)(=O)c2ccccc2C)ccc1Cc1cn(C)c2ccc(NC(=O)OC3CCCC3)cc12` [Zafirlukast], for which the “minimum proliferation inhibitory concentration” value in the series with MDA-MB-231 is given as > 100 nM.
As to `CC(C)Cc1ccc(C(C)C(=O)O)cc1` (stereo not shown) [Ibuprofen], in the series with cell growth, the “dose for cell growth inhibition” value is reported as “at least 500 μM”. For the same compound, the “minimum inhibitory concentration” value in the series with MDA-MB-231 turned out to be 500 µM (≈ 103 µg/mL).
In the case of `CC1=C(C)C(=O)C(CCCCC#CCCCC#CCO)=C(C)C1=O` [AA861, Docebenone], the “minimum inhibitory concentration” value in the series with MDA-MB-231 is 10 µM (≈ 3.26 µg/mL).
As to `Cc1ccc(-c2ncc(Cl)cc2-c2ccc(S(C)(=O)=O)cc2)cn1` [Etoricoxib], the “minimum proliferation inhibitory concentration” value with MDA-MB-231 is reported as 1000 nM.
As to `CC(c1cc2ccccc2s1)N(O)C(N)=O` (stereo not shown) [Zileuton], the “minimum inhibitory concentration” value with MDA-MB-231 is 500 µM (≈ 118 µg/mL).
As to `Cc1c(C)c2c(c(C)c1O)CCC(C)(COc1ccc(CC3SC(=O)NC3=O)cc1)O2` (stereo not shown) [Troglitazone], in series [1], the “toxic effects on endothelial cells” value is reported as “toxic effects were described”. Moreover, the “minimum inhibitory concentration” value in the series with MDA-MB-231 is 75 µM (≈ 33.1 µg/mL).
